The results in this text go back to PMC12608647, “Synthesis and Activity Evaluation of Novel Benzoxazepinone Derivatives as Potential Inhibitors of Glycogen Phosphorylase” (Molecules, 2025).

“Also recorded” adds a separate entry of the source.

In assay [1] the test system is HL-7702 cells. Put plainly: Glycogenolysis inhibition assay in HL-7702 cells. It is filed as cell-based, human. The conditions noted are these: for IC50: Homo sapiens, L02, 1 h, HL-7702 cells, 0.3 nM glucagon, 60 min, mean ± SD of three determinations. How it is done: To evaluate the effects of the synthesized compounds on glycogen degradation, compounds 8a–8i were subjected to a glycogenolysis assay in HL-7702 cells.
The inhibitory effect on hepatic glycogenolysis was quantitatively assessed by colorimetry using a microplate reader (Bio-Rad Laboratories) and anthrone reagent (Sigma-Aldrich, St. Louis, MO, USA), as previously described. Primary human liver HL-7702 cells (National Collection of Authenticated Cell Cultures) were treated with test compounds or DMSO solvent (final concentration, 0.10%) and then co-incubated with 0.3 nM glucagon for 60 min. After termination of the reaction by centrifugation, the cells were digested with 30% potassium hydroxide, and the glycogen content was determined. When culturing cells to concentration, a 6-well plate is used for cell culture, with a cell seeding density of 10^6 cells per well. The condition is set at a constant temperature of 37 degrees Celsius. The repetition count is three times. The activity assessment criteria were based on the positive drug psn-357 and the parent nuclear compound 5d. IC50 values were estimated by fitting the inhibition data to a logistic regression equation to generate dose–response curves. Analysis was conducted using SPSS Statistics 17.0. In vitro data are presented as mean ± SD, and in vivo data as mean ± SEM. Differences between two groups were assessed using Student’s t-test, and comparisons among three or more groups using ANOVA. A p-value < 0.05 was considered significant.

Assay [2] addresses T1, rabbit muscle glycogen phosphorylase a (RMGPa) (Oryctolagus cuniculus, UniProt P00489).
T1 sequence (P00489 2-843 limits assumed): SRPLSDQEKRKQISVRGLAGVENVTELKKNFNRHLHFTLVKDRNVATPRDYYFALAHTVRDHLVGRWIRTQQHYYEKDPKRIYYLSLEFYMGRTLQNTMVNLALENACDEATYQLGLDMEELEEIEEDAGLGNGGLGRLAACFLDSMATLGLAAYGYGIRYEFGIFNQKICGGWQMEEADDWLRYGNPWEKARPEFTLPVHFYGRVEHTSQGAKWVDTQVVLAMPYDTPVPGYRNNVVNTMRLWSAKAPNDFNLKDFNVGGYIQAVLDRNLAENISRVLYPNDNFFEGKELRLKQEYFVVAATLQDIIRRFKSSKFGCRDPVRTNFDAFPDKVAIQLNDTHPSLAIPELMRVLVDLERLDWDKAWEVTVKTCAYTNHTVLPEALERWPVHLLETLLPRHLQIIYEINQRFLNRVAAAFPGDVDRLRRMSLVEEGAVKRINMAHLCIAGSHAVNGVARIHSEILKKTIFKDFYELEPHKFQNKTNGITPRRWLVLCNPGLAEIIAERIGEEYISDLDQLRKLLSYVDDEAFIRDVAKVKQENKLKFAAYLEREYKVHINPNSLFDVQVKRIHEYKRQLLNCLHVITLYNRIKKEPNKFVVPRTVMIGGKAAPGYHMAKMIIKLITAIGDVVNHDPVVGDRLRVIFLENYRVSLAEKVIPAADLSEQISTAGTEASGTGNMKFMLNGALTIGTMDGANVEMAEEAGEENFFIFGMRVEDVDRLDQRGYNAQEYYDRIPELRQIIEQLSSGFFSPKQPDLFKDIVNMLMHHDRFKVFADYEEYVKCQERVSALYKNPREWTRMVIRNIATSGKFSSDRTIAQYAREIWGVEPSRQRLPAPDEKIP
Put plainly: RMGPa inhibition assay (phosphate release from glucose-1-phosphate). The conditions noted are these: for IC50: mean ± SD of three determinations. The assay is classed as biochemical. The protocol:
The synthesized compounds were evaluated for their inhibitory activity against rabbit muscle glycogen phosphorylase a (RMGPa) according to a previously reported protocol. PSN-357, a compound in phase II clinical trials, was used as a positive control. We also used the parent structure 5d as a positive control (Figure 2).
The inhibitory activity of the test compounds against RMGPa was evaluated using a microplate reader (Bio-Rad Laboratories, Berkeley, CA, USA) according to a previously described method. Briefly, RMGPa activity was determined by measuring the release of phosphate from glucose-1-phosphate, which reflects the direction of glycogen synthesis. Each test compound was dissolved in DMSO and diluted to different concentrations for IC50 determination. The enzyme was added to 100 μL reaction mixtures in 96-well Costar microplates (Corning Inc., Corning, NY, USA) containing 50 mM HEPES (pH 7.2), 100 mM potassium chloride (KCl), 2.5 mM magnesium chloride (MgCl2), 0.5 mM glucose-1-phosphate, 1 mg/mL glycogen, and the test compounds. After incubation at 22 °C for 25 min, 150 μL of a solution containing 10 mg/mL ammonium molybdate and 0.38 mg/mL malachite green was added. The absorbance of phosphate was measured at 620 nm. IC50 values were estimated by fitting the inhibition data to a dose–response curve using a logistic regression equation.

For orientation: IC50 means the concentration needed to halve the response being measured. Low values mean higher potency, high ones lower potency. Regarding `O=C(N[C@@H](Cc1ccc(F)cc1)C(=O)N1CCC(O)CC1)c1cc2cc(Cl)ncc2[nH]1` [PSN-357, reference compound], the IC50 in assay [1] came to 4.94 ± 0.28 µM.

Consider `CC(C)CCOC1COc2ccc(NC(=O)c3cc4cc(Cl)ccc4[nH]3)cc2C(=O)N1` (centres unmarked) [Compound 8h, 5-chloro-N-(3-(isopentyloxy)-5-oxo-2,3,4,5-tetrahydrobenzo[f][1,4]oxazepin-7-yl)-1H-indole-2-carboxamide], for which the IC50 in assay [2] is 0.7 ± 0.55 µM; in assay [1], 6.99 ± 0.99 µM.

As to `CCOC1COc2ccc(NC(=O)c3cc4cc(Cl)ccc4[nH]3)cc2C(=O)N1` (centres unmarked) [Compound 8b, 5-chloro-N-(3-ethoxy-5-oxo-2,3,4,5-tetrahydrobenzo[f][1,4]oxazepin-7-yl)-1H-indole-2-carboxamide], the values for the IC50 in assay [2] and in assay [1] were 1.61 ± 0.41 µM and 6.77 ± 0.93 µM, respectively.

Take `COCCOC1COc2ccc(NC(=O)c3cc4cc(Cl)ccc4[nH]3)cc2C(=O)N1` (centres unmarked) [Compound 8i, 5-chloro-N-[3-(2-methoxyethoxy)-5-oxo-2,3,4,5-tetrahydrobenzo[f][1,4]oxazepin-7-yl]-1H-indole-2-carboxamide]: the IC50 in assay [2] is 5.31 ± 0.62 µM; in assay [1], > 15.4 µM.

Consider `COC1COc2ccc(NC(=O)c3cc4cc(Cl)ccc4[nH]3)cc2C(=O)N1` (centres unmarked) [Compound 8a, 5-chloro-N-(3-methoxy-5-oxo-2,3,4,5-tetrahydrobenzo[f][1,4]oxazepin-7-yl)-1H-indole-2-carboxamide], for which the IC50 was found to be 0.21 ± 0.05 µM in assay [2] and 8.51 ± 3.99 µM in assay [1]. In addition, the “RMGPa inhibitory activity relative to PSN-357” value in assay [2] (versus PSN-357) is “twice as strong”.

As to `CCCCOC1COc2ccc(NC(=O)c3cc4cc(Cl)ccc4[nH]3)cc2C(=O)N1` (centres unmarked) [Compound 8d, N-(3-butoxy-5-oxo-2,3,4,5-tetrahydrobenzo[f][1,4]oxazepin-7-yl)-5-chloro-1H-indole-2-carboxamide], the IC50 was found to be 0.71 ± 0.25 µM in assay [2] and 9.81 ± 1.39 µM in assay [1].

For `CCCOC1COc2ccc(NC(=O)c3cc4cc(Cl)ccc4[nH]3)cc2C(=O)N1` (centres unmarked) [Compound 8c, 5-chloro-N-(5-oxo-3-propoxy-2,3,4,5-tetrahydrobenzo[f][1,4]oxazepin-7-yl)-1H-indole-2-carboxamide], half-maximal inhibition in assay [1] (IC50) was put at 5.33 ± 1.39 µM.

As to `O=C(Nc1ccc2c(c1)C(=O)NC(OCc1ccccc1)CO2)c1cc2cc(Cl)ccc2[nH]1` (centres unmarked) [Compound 8g, N-(3-(benzyloxy)-5-oxo-2,3,4,5-tetrahydrobenzo[f][1,4]oxazepin-7-yl)-5-chloro-1H-indole-2-carboxamide], the 50% inhibitory concentration (IC50) in assay [2] came out at 0.62 ± 0.16 µM; in assay [1], 1.51 ± 0.21 µM. The “potency relative to parent structure 5d in HL-7702 cells” value in assay [1] (versus 5d) was “twice”. Also, the “potency relative to PSN-357 in HL-7702 cells (inhibition of glycogen degradation)” value in assay [1] (versus PSN-357) was “threefold increase; also recorded: three times greater”.

As to `CCCCCOC1COc2ccc(NC(=O)c3cc4cc(Cl)ccc4[nH]3)cc2C(=O)N1` (centres unmarked) [Compound 8e, 5-chloro-N-(5-oxo-3-(pentyloxy)-2,3,4,5-tetrahydrobenzo[f][1,4]oxazepin-7-yl)-1H-indole-2-carboxamide], the IC50 in assay [2] turned out to be 0.88 ± 0.03 µM; in assay [1], 15.4 ± 0.89 µM.

In the case of `CCCCCCOC1COc2ccc(NC(=O)c3cc4cc(Cl)ccc4[nH]3)cc2C(=O)N1` (centres unmarked) [Compound 8f, 5-chloro-N-(3-(hexyloxy)-5-oxo-2,3,4,5-tetrahydrobenzo[f][1,4]oxazepin-7-yl)-1H-indole-2-carboxamide], the IC50 is 0.29 ± 0.1 µM in assay [2] and 7.67 ± 1.98 µM in assay [1].

With `O=C(Nc1ccc2c(c1)C(=O)NCCO2)c1cc2cc(Cl)ccc2[nH]1` [Compound 5d, reference compound], the IC50 in assay [2] came to 0.25 ± 0.05 µM; in assay [1], 3.75 ± 2.67 µM.
